Experimental data taken from US20080181866A1, “Amido Anti-viral Compounds” (Genelabs Technologies, Inc., priority 2006, published 2008).

System: HCV replication
Test: HCV replicon assay (luciferase) in ET (Huh-lucubineo-ET) cell line
Type: cell-based
Details: Hepatitis C virus, tested at 5 μM; ET replicon cells; luciferase activity measured 48-72 hours later; relative to no compound control
In short: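 Huh-lucubineo-ET cells stably carry a subgenomic replicon with a firefly luciferase–ubiquitin–neo fusion and adaptive NS3-5B mutations; they were seeded 24 h before compound addition (0.1 nM–50 μM, 0.5% DMSO). Luciferase was read 48–72 h later as % inhibition versus no-compound control, with parallel WST-1 cytotoxicity. EC50 and TC50 came from 10-point 2-fold dilutions fitted to a Hill equation.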

CNC(=O)CCCCC1SC[C@@H](C(=O)Nc2nc(-c3ccc(C(=O)NC4CC4)cc3)cs2)N1C(=O)OCc1ccccc1 (stereo partly shown) [Compound 7099, 4-[4-(4-Cyclopropylcarbamoyl-phenyl)-thiazol-2-ylcarbamoyl]-2-(4-methylcarbamoyl-butyl)-thiazolidine-3-carboxylic acid benzyl ester]
inhibition at 5 µM: 100%

O=C(NCc1ccccc1)c1cccc(NC(=O)[C@@H]2CSC(c3ccncc3)N2C(=O)OCc2ccccc2)c1 (stereo partly shown) [Compound 7100, 4-(3-Benzylcarbamoyl-phenylcarbamoyl)-2-pyridin-4-yl-thiazolidine-3-carboxylic acid benzyl ester]
inhibition at 5 µM: 80.1%

O=C(NC1CC1)c1ccc(-c2csc(NC(=O)[C@@H]3CSC(Cc4ccccc4)N3C(=O)OCc3ccccc3)n2)cc1 (stereo partly shown) [Compound 7101, 2-Benzyl-4-[4-(4-cyclopropylcarbamoyl-phenyl)-thiazol-2-ylcarbamoyl]-thiazolidine-3-carboxylic acid benzyl ester]
inhibition at 5 µM: 98.4%

O=C(NC1CC1)c1ccc(-c2csc(NC(=O)[C@@H]3CSC(C4CCOCC4)N3C(=O)CC3CC3)n2)cc1 (stereo partly shown) [Compound 7104, 3-(2-Cyclopropyl-acetyl)-2-(tetrahydropyran-4-yl)-thiazolidine-4-carboxylic acid [4-(4-cyclopropylcarbamoyl-phenyl)-thiazol-2-yl]-amide]
inhibition at 5 µM: 100%

CN(C(=O)[C@@H]1CSC(c2ccncc2)N1C(=O)OCc1ccccc1)c1nc(-c2ccc(C(=O)NC3CC3)cc2)cs1 (stereo partly shown) [Compound 7106, 4-{[4-(4-Cyclopropylcarbamoyl-phenyl)-thiazol-2-yl]-methyl-carbamoyl}-2-pyridin-4-yl-thiazolidine-3-carboxylic acid benzyl ester]
inhibition at 5 µM: 32.9%

O=C(NC1CC1)c1ccc(NC(=O)[C@@H]2CSC(C3CCOCC3)N2C(=O)OCc2ccccc2)cc1 (stereo partly shown) [Compound 7107, 4-(4-Cyclopropylcarbamoyl-phenylcarbamoyl)-2-(tetrahydro-pyran-4-yl)-thiazolidine-3-carboxylic acid benzyl ester]
inhibition at 5 µM: 10%

COC(=O)CCCCC1SC[C@@H](C(=O)Nc2nc(-c3ccc(C(=O)NC4CC4)cc3)cs2)N1C(=O)OCc1ccccc1 (stereo partly shown) [Compound 7108, 4-[4-(4-Cyclopropylcarbamoyl-phenyl)-thiazol-2-ylcarbamoyl]-2-(4-methoxycarbonyl-butyl)-thiazolidine-3-carboxylic acid benzyl ester]
inhibition at 5 µM: 99.9%

O=C(Nc1ccc(CNS(=O)(=O)c2ccccc2)cc1)[C@@H]1CSC(c2ccncc2)N1C(=O)OCc1ccccc1 (stereo partly shown) [Compound 7111, 4-[4-(Benzenesulfonylamino-methyl)-phenylcarbamoyl]-2-pyridin-4-yl-thiazolidine-3-carboxylic acid benzyl ester]
inhibition at 5 µM: 43%

CN1CCC2(CC1)SC[C@@H](C(=O)Nc1nc(-c3ccc(C(=O)NC4CC4)cc3)cs1)N2C(=O)OCc1ccccc1 [Compound 7114, 3-[4-(4-Cyclopropylcarbamoyl-phenyl)-thiazol-2-ylcarbamoyl]-8-methyl-1-thia-4,8-diaza-spiro[4.5]decane-4-carboxylic acid benzyl ester]
inhibition at 5 µM: 100%

O=C(Cc1cccc(NC(=O)[C@@H]2CSC(c3ccncc3)N2C(=O)OCc2ccccc2)c1)NCc1ccccc1 (stereo partly shown) [Compound 7116, 4-[3-(Benzylcarbamoyl-methyl)-phenylcarbamoyl]-2-pyridin-4-yl-thiazolidine-3-carboxylic acid benzyl ester]
inhibition at 5 µM: 84.9%

Cc1ccc2[nH]c(Cc3ccc(NC(=O)[C@@H]4CSC(c5ccncc5)N4C(=O)OCc4ccccc4)cc3)nc2c1 (stereo partly shown) [Compound 7117, 4-[4-(5-Methyl-1H-benzoimidazol-2-ylmethyl)-phenylcarbamoyl]-2-pyridin-4-yl-thiazolidine-3-carboxylic acid benzyl ester]
inhibition at 5 µM: 42.4%

CN(C)C(=O)CCC1SC[C@@H](C(=O)Nc2nc(-c3ccc(C(=O)NC4CC4)cc3)cs2)N1C(=O)OCc1ccccc1 (stereo partly shown) [Compound 7118, 4-[4-(4-Cyclopropylcarbamoyl-phenyl)-thiazol-2-ylcarbamoyl]-2-(2-dimethylcarbamoyl-ethyl)-thiazolidine-3-carboxylic acid benzyl ester]
inhibition at 5 µM: 99.9%

O=C(Cc1ccc(NC(=O)[C@@H]2CSC(c3ccncc3)N2C(=O)OCc2ccccc2)cc1)NCCc1ccccc1 (stereo partly shown) [Compound 7119, 4-[4-(Phenethylcarbamoyl-methyl)-phenylcarbamoyl]-2-pyridin-4-yl-thiazolidine-3-carboxylic acid benzyl ester]
inhibition at 5 µM: 1.2%

CC(=O)c1cccc(C2SC[C@@H](C(=O)Nc3nc(-c4ccc(C(=O)NC5CC5)cc4)cs3)N2C(=O)OCc2ccccc2)c1 (stereo partly shown) [Compound 7120, 2-(3-Acetyl-phenyl)-4-[4-(4-cyclopropylcarbamoyl-phenyl)-thiazol-2-ylcarbamoyl]-thiazolidine-3-carboxylic acid benzyl ester]
inhibition at 5 µM: 100%

COC(=O)CCC1SC[C@@H](C(=O)Nc2nc(-c3ccc(C(=O)NC4CC4)cc3)cs2)N1C(=O)OCc1ccccc1 (stereo partly shown) [Compound 7121, 4-[4-(4-Cyclopropylcarbamoyl-phenyl)-thiazol-2-ylcarbamoyl]-2-(2-methoxycarbonyl-ethyl)-thiazolidine-3-carboxylic acid benzyl ester]
inhibition at 5 µM: 99.8%

O=C(NC1CC1)c1ccc(-c2csc(NC(=O)[C@@H]3CSC(C4CCOC4)N3C(=O)OCc3ccccc3)n2)cc1 (stereo partly shown) [Compound 7122, 4-[4-(4-Cyclopropylcarbamoyl-phenyl)-thiazol-2-ylcarbamoyl]-2-(tetrahydro-furan-3-yl)-thiazolidine-3-carboxylic acid benzyl ester]
inhibition at 5 µM: 100%

O=C(Cc1ccc(NC(=O)[C@@H]2CSC(c3ccncc3)N2C(=O)OCc2ccccc2)cc1)Nc1ccccc1 (stereo partly shown) [Compound 7126, 4-(4-Phenylcarbamoylmethyl-phenylcarbamoyl)-2-pyridin-4-yl-thiazolidine-3-carboxylic acid benzyl ester]
inhibition at 5 µM: 93.8%

NC(=O)c1cccc(NC(=O)[C@@H]2CSC(c3ccncc3)N2C(=O)OCc2ccccc2)c1 (stereo partly shown) [Compound 7127, 4-(3-carbamoyl-phenylcarbamoyl)-2-pyridin-4-yl-thiazolidine-3-carboxylic acid benzyl ester]
inhibition at 5 µM: 25.7%

COc1ccc(CNC(=O)Cc2cccc(NC(=O)[C@@H]3CSC(c4ccncc4)N3C(=O)OCc3ccccc3)c2)cc1 (stereo partly shown) [Compound 7128, 4-{3-[(4-Methoxy-benzylcarbamoyl)-methyl]-phenylcarbamoyl}-2-pyridin-4-yl-thiazolidine-3-carboxylic acid benzyl ester]
inhibition at 5 µM: 97.5%

NC(=O)c1ccc(NC(=O)[C@@H]2CSC(c3ccncc3)N2C(=O)OCc2ccccc2)cc1 (stereo partly shown) [Compound 7134, 4-(4-carbamoyl-phenylcarbamoyl)-2-pyridin-4-yl-thiazolidine-3-carboxylic acid benzyl ester]
inhibition at 5 µM: 13.6%

O=C(Cc1cccc(NC(=O)[C@@H]2CSC(c3ccncc3)N2C(=O)OCc2ccccc2)c1)NCCc1ccccc1 (stereo partly shown) [Compound 7136, 4-[3-(Phenethylcarbamoyl-methyl)-phenylcarbamoyl]-2-pyridin-4-yl-thiazolidine-3-carboxylic acid benzyl ester]
inhibition at 5 µM: 90%

O=C(NCCN1CCOCC1)c1ccc(-c2csc(NC(=O)[C@@H]3CSC4(CCOCC4)N3C(=O)OCc3ccccc3)n2)cc1 [Compound 7138, 3-{4-[4-(2-Morpholin-4-yl-ethylcarbamoyl)-phenyl]-thiazol-2-ylcarbamoyl}-8-oxa-1-thia-4-aza-spiro[4.5]decane-4-carboxylic acid benzyl ester]
inhibition at 5 µM: 100%

O=C(Nc1cccnc1)c1ccc(-c2csc(NC(=O)[C@@H]3CSC4(CCOCC4)N3C(=O)OCc3ccccc3)n2)cc1 [Compound 7139, 3-{4-[4-(Pyridin-3-ylcarbamoyl)-phenyl]-thiazol-2-ylcarbamoyl}-8-oxa-1-thia-4-aza-spiro-[4.5]decane-4-carboxylic acid benzyl ester]
inhibition at 5 µM: 100%

O=C(Nc1cccnc1)c1ccc(-c2csc(NC(=O)[C@@H]3COC4(CCOCC4)N3C(=O)OCc3ccccc3)n2)cc1 [Compound 7140, 3-{4-[4-(Pyridin-3-ylcarbamoyl)-phenyl]-thiazol-2-ylcarbamoyl}-1,8-dioxa-4-aza-spiro[4.5]decane-4-carboxylic acid benzyl ester]
inhibition at 5 µM: 99.9%

O=C(NCCN1CCOCC1)c1ccc(-c2csc(NC(=O)[C@@H]3COC4(CCOCC4)N3C(=O)OCc3ccccc3)n2)cc1 [Compound 7141, 3-{4-[4-(2-Morpholin-4-yl-ethylcarbamoyl)-phenyl]-thiazol-2-ylcarbamoyl}-1,8-dioxa-4-aza-spiro[4.5]decane-4-carboxylic acid benzyl ester]
inhibition at 5 µM: 100%
